Counter-ions that a name gives are not always drawn. Like-named read-outs stand apart in the source and are kept apart here.
Test system: pressor effects of angiotensin I
Experiment: oral effectiveness: blood pressure response to angiotensin I in anesthetized rats
Assay type: in vivo, rat
Conditions: for response vs control in vivo at 10 µmol/kg: Rattus norvegicus, oral 10 μmol/kg, Ex. 246, read-out: Blood Pressure Response to 400 ng/kg of Angiotensin I
Method: Rats (210-290 g body weight) were fasted overnight and then anesthetized with intraperitoneal pentobarbital, 50-60 mg/kg. Tracheostomy was performed and the animals were ventilated mechanically. A cannula was inserted into a femoral vein for injection of angiotensin I or II, and a second cannula was inserted into a common carotid artery for direct measurement of arterial blood pressure. Heparin, 1,000 units, was injected via the femoral vein to prevent coagulation. Blood pressure was measured with a pressure transducer connected to a polygraph. The rats were injected with 80 ng of angiotensin I or angiotensin II in 20 μl of 0.9 g % NaCl; an amount of antiotensin I or II sufficient to raise mean arterial blood pressure by 27-40 mm Hg. After the responsiveness of a given rat to angiotensins I and II was established, compound (I), at 2 or 5 mg/kg (drug dissolved in 0.5 ml of H2 O plus 10 μl of 1N NaHCO3), was given via a stomach tube. At timed intervals, the effects of 80 ng of angiotensin I or angiotensin II on mean arterial blood pressure were tested.
Rats were prepared as described in Example 222. Compound (II) [N-benzoyl-L-phenylalanylthiopropanoyl)-L-proline] was given orally, via a stomach tube, at a dose of 12 mg/kg or 20 mg/kg. Compound (II) was dissolved in 0.5 ml of H2 O plus 10 μl of 1N NaHCO3. In all other respects, the experimental preparations were exactly as described in Example 222.
Rats (210-290 g body weight) were fasted overnight and then anesthetized with intraperitoneal pentobarbital, 50-60 mg/kg. Tracheostomy was performed and the animals were ventilated mechanically. A cannula was inserted into a femoral vein for injection of angiotensin I or II, and a second cannula was inserted into a common carotid artery for direct measurement of arterial blood pressure. Heparin, 1,000 units, was injected via the femoral vein to prevent coagulation. Blood pressure was measured with a pressure transducer connected to a polygraph. The rats were injected with 160 ng of angiotensin I or 80 ng of angiotensin II in 20 μl of 0.9 g % NaCl; an amount of angiotensin I or II sufficient to raise mean arterial blood pressure by 27-40 mm Hg. After the responsiveness of a given rat to angiotensins I and II was established, compound (B) at 10 mg (drug dissolved in 0.5 ml of H2 O plus 10 μl of 1N NaHCO3), was given via a stomach tube. At timed intervals, the effects of 160 ng of angiotensin I or 80 ng of angiotensin II on mean arterial blood pressure were tested. Results are shown below:
Rats (210-290 g body weight) were fasted overnight and then anesthetized with intraperitoneal pentobarbital, 50-60 mg/kg. Tracheostomy was performed and the animals were ventilated mechanically. A cannula was inserted into a femoral vein for injection of angiotensin I, and a second cannula was inserted into a common carotid artery for direct measurement of arterial blood pressure. Heparin, 1,000 units, was injected via the femoral vein to prevent coagulation. Blood pressure was measured with a pressure transducer connected to a polygraph. The rats were injected with 400 ng/kg of angiotensin I in 20 μl of 0.9 g % NaCl; an amount of angiotensin I sufficient to raise mean arterial blood pressure by 39 mm Hg. After the responsiveness of a given rat to angiotensin I was established, the named compound at 17 μmol/kg (drug dissolved in 0.15 ml of H2 O plus 10 μl of 1N NaHCO3), was given via a stomach tube. At timed intervals, the effects of 400 ng/kg of angiotensin I on mean arterial blood pressure were tested. Results are shown below:
Rats (190-290 g body weight) were fasted overnight and then anesthetized with intraperitoneal pentobarbital, 50-60 mg/kg. Tracheostomy was performed and the animals were ventilated mechanically. A cannula was inserted into a femoral vein for injection of angtiotensin I, and a second cannula was inserted into a common carotid artery for direct measurement of arterial blood pressure. […]

C[C@H](CSC(=O)[C@@H](N)Cc1ccccc1)C(=O)N1CCC[C@H]1C(=O)O [N-alpha-(3-L-phenylalanylthio-2-D-methylpropanoyl)-L-proline] was tested, and the “Blood Pressure Response to 400 ng/kg of Angiotensin I” value (shortened to “Blood Pressure Response to 400 ng/kg”) (oral 20 μmol/kg, 6 min, Ex. 237) was 77 % of Control, the “Blood Pressure Response to 400 ng/kg” value (oral 20 μmol/kg, 10 min, Ex. 237) was 69 % of Control and the “Blood Pressure Response to 400 ng/kg” value (oral 20 μmol/kg, 19 min, Ex. 237) was 46 % of Control. The “Blood Pressure Response to 400 ng/kg” value (oral 20 μmol/kg, 25 min, Ex. 237) was 38 % of Control, the “Blood Pressure Response to 400 ng/kg” value (oral 20 μmol/kg, 29 min, Ex. 237) was 38 % of Control and the “Blood Pressure Response to 400 ng/kg” value (oral 20 μmol/kg, 38 min, Ex. 237) was 33 % of Control. The “Blood Pressure Response to 400 ng/kg” value (oral 20 μmol/kg, 50 min, Ex. 237) was 33 % of Control, the “Blood Pressure Response to 400 ng/kg” value (oral 20 μmol/kg, 57 min, Ex. 237) was 31 % of Control and the “Blood Pressure Response to 400 ng/kg” value (oral 20 μmol/kg, 65 min, Ex. 237) was 31 % of Control. The “Blood Pressure Response to 400 ng/kg” value (oral 20 μmol/kg, 74 min, Ex. 237) was 26 % of Control and the “Blood Pressure Response to 400 ng/kg” value (oral 20 μmol/kg, 88 min, Ex. 237) was 36 % of Control.

CC(=O)N[C@@H](Cc1ccccc1)C(=O)SC[C@@H](C)C(=O)N1CCC[C@H]1C(=O)O [N-alpha-[3-(N-alpha-acetyl-L-phenylalanylthio)-2-D-methylpropanoyl]-L-proline] was tested, and the “Blood Pressure Response to 400 ng/kg” value (oral 13.6 μmole/kg, 3 min, Ex. 235) was 40 % of Control, the “Blood Pressure Response to 400 ng/kg” value (oral 13.6 μmole/kg, 7 min, Ex. 235) was 40 % of Control and the “Blood Pressure Response to 400 ng/kg” value (oral 13.6 μmole/kg, 13 min, Ex. 235) was 28 % of Control. For the same compound, the “Blood Pressure Response to 400 ng/kg” value (oral 13.6 μmole/kg, 18 min, Ex. 235) was 24 % of Control, the “Blood Pressure Response to 400 ng/kg” value (oral 13.6 μmole/kg, 23 min, Ex. 235) was 20 % of Control and the “Blood Pressure Response to 400 ng/kg” value (oral 13.6 μmole/kg, 31 min, Ex. 235) was 18 % of Control. The “Blood Pressure Response to 400 ng/kg” value (oral 13.6 μmole/kg, 34 min, Ex. 235) was 20 % of Control, the “Blood Pressure Response to 400 ng/kg” value (oral 13.6 μmole/kg, 42 min, Ex. 235) was 20 % of Control and the “Blood Pressure Response to 400 ng/kg” value (oral 13.6 μmole/kg, 48 min, Ex. 235) was 16 % of Control. The “Blood Pressure Response to 400 ng/kg” value (oral 13.6 μmole/kg, 58 min, Ex. 235) was 16 % of Control, the “Blood Pressure Response to 400 ng/kg” value (oral 13.6 μmole/kg, 67 min, Ex. 235) was 20 % of Control and the “Blood Pressure Response to 400 ng/kg” value (oral 13.6 μmole/kg, 80 min, Ex. 235) was 20 % of Control. The “Blood Pressure Response to 400 ng/kg” value (oral 13.6 μmole/kg, 90 min, Ex. 235) was 18 % of Control, the “Blood Pressure Response to 400 ng/kg” value (oral 13.6 μmole/kg, 100 min, Ex. 235) was 16 % of Control and the “Blood Pressure Response to 400 ng/kg” value (oral 13.6 μmole/kg, 112 min, Ex. 235) was 20 % of Control. For the same compound, the “Blood Pressure Response to 400 ng/kg” value (oral 13.6 μmole/kg, 125 min, Ex. 235) was 20 % of Control, the “Blood Pressure Response to 400 ng/kg” value (oral 13.6 μmole/kg, 137 min, Ex. 235) was 30 % of Control and the “Blood Pressure Response to 400 ng/kg” value (oral 13.6 μmole/kg, 167 min, Ex. 235) was 50 % of Control.

With C[C@H](CSC(=O)[C@H](Cc1ccccc1)NC(=O)C1CCCC1)C(=O)N1CCC[C@H]1C(=O)O [N-alpha-[3-(N-alpha-cyclopentylcarbonyl-L-phenylalanylthio)-2-D-methylpropanoyl]-L-proline] the “Blood Pressure Response to 400 ng/kg” value (oral 23 μmole/kg, 2 min, Ex. 231) was 71 % of Control, the “Blood Pressure Response to 400 ng/kg” value (oral 23 μmole/kg, 6 min, Ex. 231) was 63 % of Control and the “Blood Pressure Response to 400 ng/kg” value (oral 23 μmole/kg, 16 min, Ex. 231) was 49 % of Control. For the same compound, the “Blood Pressure Response to 400 ng/kg” value (oral 23 μmole/kg, 23 min, Ex. 231) was 43 % of Control, the “Blood Pressure Response to 400 ng/kg” value (oral 23 μmole/kg, 37 min, Ex. 231) was 43 % of Control and the “Blood Pressure Response to 400 ng/kg” value (oral 23 μmole/kg, 48 min, Ex. 231) was 40 % of Control. For the same compound, the “Blood Pressure Response to 400 ng/kg” value (oral 23 μmole/kg, 64 min, Ex. 231) was 26 % of Control, the “Blood Pressure Response to 400 ng/kg” value (oral 23 μmole/kg, 71 min, Ex. 231) was 26 % of Control and the “Blood Pressure Response to 400 ng/kg” value (oral 23 μmole/kg, 84 min, Ex. 231) was 37 % of Control. The “Blood Pressure Response to 400 ng/kg” value (oral 23 μmole/kg, 96 min, Ex. 231) was 37 % of Control, the “Blood Pressure Response to 400 ng/kg” value (oral 23 μmole/kg, 109 min, Ex. 231) was 40 % of Control and the “Blood Pressure Response to 400 ng/kg” value (oral 23 μmole/kg, 124 min, Ex. 231) was 54 % of Control. The “Blood Pressure Response to 400 ng/kg” value (oral 23 μmole/kg, 140 min, Ex. 231) was 51 % of Control, the “Blood Pressure Response to 400 ng/kg” value (oral 23 μmole/kg, 157 min, Ex. 231) was 63 % of Control and the “Blood Pressure Response to 400 ng/kg” value (oral 23 μmole/kg, 171 min, Ex. 231) was 77 % of Control.

With C[C@H](CSC(=O)C(Cc1ccccc1)NC(=O)c1ccccc1)C(=O)N1CCC[C@H]1C(=O)O (stereo partly drawn) [sodium salt of N-alpha[3-(N-alpha-benzoyl-D,L-phenylalanylthio)-2-D-methylpropanoyl]-L-proline] the response vs control in vivo at 10 µmol/kg (5 min, 5 min) was 82%, the response vs control in vivo at 10 µmol/kg (10 min, 10 min) was 33% and the response vs control in vivo at 10 µmol/kg (0.25 h, 15 min) was 24%. The response vs control in vivo at 10 µmol/kg (20 min, 20 min) was 27%, the response vs control in vivo at 10 µmol/kg (0.5 h, 30 min) was 27% and the response vs control in vivo at 10 µmol/kg (40 min, 40 min) was 22%. For the same compound, the response vs control in vivo at 10 µmol/kg (50 min, 50 min) was 24%, the response vs control in vivo at 10 µmol/kg (1 h, 60 min) was 27% and the response vs control in vivo at 10 µmol/kg (1.5 h, 90 min) was 36%. The response vs control in vivo at 10 µmol/kg (2 h, 120 min) was 44%, the response vs control in vivo at 10 µmol/kg (2.5 h, 150 min) was 62% and the response vs control in vivo at 10 µmol/kg (3 h, 180 min) was 60%. The response vs control in vivo at 10 µmol/kg (3.5 h, 210 min) was 71% and the response vs control in vivo at 10 µmol/kg (4 h, 240 min) was 73%.

Source: patent US4745124A, “Orally effective anti-hypertensive agents” (priority 1983, dated 1988)
